Assay results published in patent US20030055052A1, “FAP-activated anti-tumor compounds” (priority 2000, published 2003).

Target: T1, FAP (Homo sapiens, UniProt Q12884)
T1 construct: expressed in transfected cells; host or cells: human embryonic kidney 293 cells stably transfected with pFAP.38; cell extract used
T1 sequence (Q12884 1-760): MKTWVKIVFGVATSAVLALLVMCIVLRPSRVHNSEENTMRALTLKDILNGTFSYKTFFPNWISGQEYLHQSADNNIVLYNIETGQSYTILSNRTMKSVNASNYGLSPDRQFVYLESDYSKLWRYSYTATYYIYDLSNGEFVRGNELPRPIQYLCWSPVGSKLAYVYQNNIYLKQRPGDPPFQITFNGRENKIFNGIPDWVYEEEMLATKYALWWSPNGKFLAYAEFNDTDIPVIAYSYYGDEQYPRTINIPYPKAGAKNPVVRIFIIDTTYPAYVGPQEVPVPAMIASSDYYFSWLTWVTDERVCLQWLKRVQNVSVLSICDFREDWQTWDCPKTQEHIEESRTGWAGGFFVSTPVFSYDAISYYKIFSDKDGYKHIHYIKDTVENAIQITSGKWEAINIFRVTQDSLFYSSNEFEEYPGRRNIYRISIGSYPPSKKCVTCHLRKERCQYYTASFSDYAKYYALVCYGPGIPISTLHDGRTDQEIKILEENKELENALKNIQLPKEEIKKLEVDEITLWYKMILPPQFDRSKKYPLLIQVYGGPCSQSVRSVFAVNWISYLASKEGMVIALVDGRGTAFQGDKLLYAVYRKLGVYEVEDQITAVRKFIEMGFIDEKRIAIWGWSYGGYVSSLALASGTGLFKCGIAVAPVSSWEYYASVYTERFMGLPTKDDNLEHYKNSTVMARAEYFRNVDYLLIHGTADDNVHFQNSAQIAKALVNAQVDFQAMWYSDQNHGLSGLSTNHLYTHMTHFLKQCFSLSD
Test: Assay for cleavage of AMCA substrates by FAP
Assay type: biochemical
Details: 1 ng FAP enzyme (FAP-transfected 293 cell extract), 20 μl 2.5 mM substrate, room temperature, 1 hour; control 293 extract subtracted
Description: Assay for Cleavage of AMCA Substrates by FAP:
Cell extract from 293 cells stably transfected with FAP prepared as described (see Park, et al., Fibroblast Activation Protein, a Dual Specificity Serine Protease expressed in human tumor stromal fibroblasts. (1999) J. Biol. Chem. 36505-12.). A similar extract was also prepared from parental 293 control cells without FAP. The FAP concentration in the FAP-transfected cell extract was estimated by immunoassay and 1 ng enzyme (diluted in buffer A) was used per assay. FAP-negative 293 control cell extract was used at the same dilution (also in buffer A) as a negative control. Substrate was initially dissolved in dimethylformamide at a concentration of 200 mM and diluted in buffer A to a final concentration of 2.5 mM. A few substrates were not soluble at this concentration and had to be diluted further.
10 μl 10% DMSO in buffer A
70 ll diluted FAP cell extract containing 1 ng FAP enzyme (OR control 293 cell extract without FAP)
Mix, incubate at room temperature for 1 hour, and measure fluorescence in Fluorostar fluorimeter at the following wavelengths:
AMCA conjugates: Excitation: 390 nm, Emission: 440 nm.
The fluorescence measured in the samples treated with control 293 control cell extracts without FAP is subtracted from the values measured in the samples treated with 1 ng FAP enzyme.

## Z-Imi-Ala-Gly-Pro-AMCA
  Cleavage: 0.61 µM
  Turnover: 0.12%

## Z-Thz-Ala-Gly-Pro-AMCA-OH
  Cleavage: 1.11 µM
  Turnover: 0.22%
